Among the data in patent US20250144170A1, “METHOD FOR SUSTAINED DRUG DELIVERY FOR WOUND HEALING USING SILK HYDROGEL AND PRODUCT THEREOF” (AASYA HEALTH CARE PRIVATE LIMITED, priority 2022, published 2025) are viability and zone of inhibition values, retold here.

Common to all, as to assay type: cell-based
One data set can be described thus: MTT assay cell viability. On the procedure: All the three cell lines (10,000 cells/200 μl medium) were cultured in their respective media in 96-well plates until they reached 60% confluency. Hydrogels and doxycycline were added in their respective wells. Plates were incubated at 37° C., 5% CO2, for 24 h. Media were removed and 200 μl of MTT solution (0.5 mg/ml prepared in phosphate buffer saline (PBS, Himedia, Catalog #TS1119)) was added to each well. Plate was incubated in dark at 37° C., 5% CO2 for 4h. MTT solution was then removed and 100 μl demthyl sulfoxide (DMSO) was added to each well to dissolve the formazan crystal. Absorbance was calculated at 570 nm in the multiplate reader. Percent of cell viability was calculated using Equation 2.
Where, O.D. is optical density at 570 nm.

The subject of the next data set is S. aureus. Put plainly: Zone of inhibition on agar plates. The conditions noted are these: Staphylococcus aureus, 37° C., 24 h, 25 mg hydrogel with 2 mg drug. As for the experimental part:
(§1) S. aureus and S. mutans were cultured in nutrient broth and spread onto agar plates. Hydrogels (25 mg SF doxy hydrogel having 5 mm diameter with 2 mg drug) were kept in each plate in the center on the media and for doxycycline, drug was added in the center where the media was punched out. Plates were incubated at 37° C. for 24 h. After the incubation period, radius of the zone of inhibition was measured in each plate.

A further data set relates to S. mutans. Kind of data set: Zone of inhibition on agar plates. The conditions noted are these: Streptococcus mutans, 37° C., 24 h, 25 mg hydrogel with 2 mg drug. On the procedure: as §1

The structures appear in SMILES notation.

`C[C@H]1c2cccc(O)c2C(=O)C2=C(O)[C@]3(O)C(=O)C(C(N)=O)=C(O)[C@@H](N(C)C)[C@@H]3[C@@H](O)[C@@H]21` [doxycycline]: the viability at 24 h is 40% in “MTT assay cell viability” (human, HDFC cells); 40% in the data set “MTT assay cell viability” (human, MG63 cells, MG63, 24 h); 40% in “MTT assay cell viability” (mouse, MC3T3 cells, MC3T3, 24 h). Also, the zone of inhibition at 2000 µg/disc with S. aureus came out at 10 mm; in the data set with S. mutans it was 25 mm.
